In patent US6495313B2, “Silver halide color photographic light-sensitive material” (Fuji Photo Film Co., Ltd., priority 1997, dated 2002):

Assay: pKa of cyan coupler by pH titration (half-neutralization point)
Type: physicochemical
Conditions: tetrahydrofuran/water 6/4 by volume, solvent mixture of tetrahydrofuran and water 6/4 by volume
Procedure: The pKa of the coupler can be easily determined by obtaining a pH of a point where neutralization is performed just half on a pH titration curve measured in a solvent mixture of tetrahydrofuran and water in a ratio of 6/4 by volume.

Compared with CCCCCCCCCCCCCCOc1ccccc1NC(=O)c1cc(OC(C)=O)c2ccccc2c1O [Sample C-6], CCCCCCCCCCCCCCCCNC(=O)c1cc(OCCS(C)(=O)=O)c2ccccc2c1O [Sample C-4, reference compound] is higher in pKa: no more than 8.7 for the first, 10.3 for the second.

CCCCCCCCCCCCc1ccc(S(=O)(=O)c2cc(C(=O)NCCc3ccccc3NC(C)=O)c(O)c3ccccc23)cc1 [Sample C-8] gave a pKa of 6.02.
